From patent publication US20150374784A1, “COMPOSITIONS AND METHODS FOR REDUCING GERM CELL DEATH” (Los Angeles Biomedical Research Institute at Harbor-UCLA …, priority 2014, published 2015)
Where a name gives a salt, the structure may show the parent alone.

What was measured:
[1] = test system: cells; conditions: Table 1, description of analogs; cited from earlier work
[2] = test system: IGFBP-3, membrane receptor, BAX, HN; conditions: Table 1, description of analogs; cited from earlier work
[3] = test system: male germ cells; format: in vivo, mouse; conditions: for spontaneous germ cell apoptosis, peptide alone: single IP, 24 hours, no CP; for inhibition of (protection against) CP-induced germ cell apoptosis, early+late stages / effect on CP-induced germ cell apoptosis, early+late stages: stages I-IV and XI-XII; for inhibition of (protection against) CP-induced germ cell apoptosis, early+late stages: HN, HN-C8P 40 mg/kg BW; for effect of adding the analog on the preventive effect of HN against CP-induced germ cell apoptosis: each peptide 40 mg/kg BW; for effect on CP-induced germ cell apoptosis, early+late stages / effect on CP-induced germ cell apoptosis, middle stages: 40 mg/kg BW
Protocol: (§1) For the HN analog experiments, male mice were divided into seven groups (n=4-5 per group) and received one of the following treatments and sacrificed after 24 hours: 1) vehicle (control); 2) a single intra-peritoneal (IP) injection of HN peptide [HN, 40 mg/Kg body weight (BW)]; 3) a single IP injection of CP (CP, 200 mg/Kg BW); 4) IP injection of CP and HN (CP+HN); 5) a single IP injection of each HN analog (HNG 5 mg/Kg BW, HNG-F6A 5 mg/Kg BW, HN-S7A 40 mg/Kg BW, HN-C8P 40 mg/Kg BW, or HN-L12A 40 mg/Kg BW); 6) IP injection of CP and each HN analog (CP+HNG, HNG-F6A, HN-S7A, HN-C8P, or HN-L12A); and 7) IP injection of CP+HN+HN analog (HN-S7A, HN-C8P, or HN-L12A; to assess whether the analogs has enhancing or inhibitory effect on HN).
(§2) To facilitate testicular fixation by using a whole-body perfusion technique, all animals were injected with heparin (130 IU/100 g BW, IP) 15 min before a lethal injection of sodium pentobarbital (200 mg/kg BW, IP) (Lue Y H, et al., 1999). One testis was removed and weighed after perfusion with saline. Portions of testicular parenchyma were snap frozen in liquid nitrogen, and stored at −80 C for Western blotting. The other testis was fixed by vascular perfusion with Bouin's solution, and processed with routine paraffin embedding for in situ detection of apoptosis.
Detection of apoptotic cells was performed in Bouin's′-fixed, paraffin-embedded testicular sections by the terminal deoxynucleotidyl transferase (TdT)-mediated deoxy-UTP nick end labeling (TUNEL) technique (Sinha Hikim A P, et al., 1997) using an ApopTag-peroxidase kit (Chemicon International, Inc., Temecula, Calif.). Enumeration of the Sertoli cell nuclei with distinct nucleoli and apoptotic germ cell population was quantified at stages I-IV (early stages), stages VII-VIII (middle stages) and stages XI-XII (late stages) of the seminiferous epithelial cycle using an Olympus BH-2 microscope (New Hyde Park, N.Y.). Stages were identified according to the criteria proposed by Russell et al for paraffin sections (Russell L, 1977). The rate of germ cell apoptosis (apoptotic index, AI) was expressed as the number of apoptotic germ cells per Sertoli cells (Sinha Hikim A P, et al., 1997).

[4] = test system: B16 melanoma cells; format: cell-based; conditions: B16 cells in culture
Description: Furthermore, the autophagy induction of humanin may be related to its apparent effects of enhancing longevity observed in other systems.

[5] = test system: germ cells in seminiferous tubules; test: Germ cell apoptosis in mouse seminiferous tubule cultures ex vivo (TUNEL); format: cell-based; conditions: 12 hours; for germ cell apoptosis (number of apoptotic germ cells) compared to control: DOX 10 μM (high dose), hydrochloride
Protocol: A total of 15 young adult (12-13 week-old) mice were used for these ex vivo studies. The animals were sacrificed with a 5% pentobarbital (200 mg/Kg) IP injection. Testes were dissected and after removing the tunica albuginea, seminiferous tubules isolated from testes were cut into small segments under a dissecting microscope and light and dark segments were separated by dissection. Ten to twelve segments were placed (2 mm in length) in each well on a six well plate with 2 ml serum free Ham F-10 culture medium (GIBCO, Life Technologies, Thermo Fisher Scientific Corp., Carlsbad, Calif.) with the following treatments: control (Con, n=10), heat (43° C., 15 minutes, used as a positive control, n=10); HN 10 μg/mL (n=9); DOX 10 mcM (Dox10, n=10); and DOX 10 mcM+Humanin 10 μg/mL (Dox10+HN, n=10). For these experiments, n represents the total number of times the treatment was repeated using different animals. After 12 hours of incubation at 34° C. the seminiferous tubules from each treatment group were used to make “squashed” seminiferous tubule samples on a slide for TUNEL (TdT-mediated dUTP nick-end labeling) assay to detect germ cell apoptosis (Erkkila, et al., 1997; Toppari & Parvinen, 1985). To quantify the rate of germ cell apoptosis under a light microscope at 400× magnification, a square grid fitted within the eyepiece provided a reference area of 62,500 μm^2. The TUNEL positive apoptotic germ cells within the frame of grid were counted in 4 segments of seminiferous tubules in each group. The incidence of germ cell apoptosis was expressed as the number of apoptotic germ cells per mm^2.
A total of 15 mice were used for ex vivo studies. The animals were sacrificed and seminiferous tubules isolated from testes were cut into small segments under a dissecting microscope to identify light (early stages I-IV and late stages XI-XII) of the seminiferous epithelium) and dark (middle stages VII-VIII) segments. Ten to twelve light segments (2 mm in length) were placed per well on a six well plate with 2 ml serum free medium of F-10 Ham nutrient mixture (Gibco, Life Technologies, Grand Island, N.Y.) following these treatments: control (Con, n=15 where n is the number of times the treatment was repeated with segments obtained from different donor animals), heat (43° C., 15 min.; used as a positive control, n=10), HN 10 μg/mL (HN, n=9), doxorubicin 1 μM (Dox1, n=7), doxorubicin 1 μM+HN 10 μg/mL (Dox1+HN, n=7), doxorubicin 10 μM (Dox10, n=10), and doxorubicin 10 μM+HN 10 μg/mL (Dox10+HN, n=10). After 12 hours of incubation at 34° C. with 5% CO2, the seminiferous tubules from the seven treatment groups were used to make “squashed” seminiferous tubule preparations on a slide for TUNEL assay to detect germ cell apoptosis (Erkkila K, et al., 1997). To quantify the rate of germ cell apoptosis, the squashed segments of seminiferous tubules were examined with an American Optical Microscope (Scientific Instruments, Buffalo, N.Y.) with a 40×objective and a 10×eyepiece lens. A square grid fitted within the eyepiece provided a reference area of 62,500 μm^2. The TUNEL positive apoptotic germ cells within the frame of grid were counted in 4 segments of seminiferous tubules in each group. The incidence of germ cell apoptosis was expressed as the number of apoptotic germ cells per mm^2.

[6] = test system: STAT3; test: STAT3 phosphorylation in testis by western blot; format: in vivo, mouse; conditions: testis homogenates; for STAT3 phosphorylation (phosphorylated STAT3/STAT3) compared with control: treatment alone; for CP suppressed STAT3 (Ser727) phosphorylation: with CP 200 mg/Kg
Protocol: as §1, §2
Western blotting was performed as described previously (Jia Y, et al., 2009). In brief, proteins were denatured and separated by sodium dodecyl sulfate-polyacrylamide gel electrophoresis (SDS-PAGE) system (Invitrogen, Carlsbad, Calif.). After transferring, the Immuno-blot PVDF Membrane (Bio-Rad, Hercules, Calif.) was blocked for 1 h and then probed using anti-STAT3 or anti-pSer727 STAT3 (Cell signaling Technology, Inc., Beverly, Mass.) overnight at 4 C with constant shaking. After washing, membrane was then incubated with an anti-mouse (for STAT3 antibody, Santa Cruz Biotechnology, Santa Cruz, Calif.) or anti-rabbit (for pSer727 STAT3 antibody, Amersham Biosciences, Piscataway, N.J.) IgG-HRP secondary antibody. All antibodies were diluted in blocking buffer. For immunodetection, membrane was incubated with enhanced chemiluminescence solutions per the manufacturer's specifications (Amersham Biosciences, Piscataway, N.J.), and exposed to Hyperfilm ECL (Denville Scientific Inc., Metuchen, N.J.).

[7] = test system: male germ cells; conditions: EDS 80 mg/kg IP 3 days before; CP 70 mg/kg BW
[8] = test system: Leydig cells; test: Leydig cell depletion and testosterone levels in rats; format: in vivo, rat
[9] = rats, EDS 80 mg/kg, CP 70 mg/kg BW, HN 40 mg/kg BW, with or without EDS pre-treatment

| Compound | Cytoprotective Action [1] | Characteristics [2] | spontaneous germ cell apoptosis, peptide alone [3] | effect of adding the analog on the preventive effect of HN against CP-induced germ cell apoptosis [3] | effect on CP-induced germ cell apoptosis, early+late stages [3] | effect on CP-induced germ cell apoptosis, middle stages ([3]; stages VII-VIII) | further results |
| --- | --- | --- | --- | --- | --- | --- | --- |
| MAPRGFSALLLLTSEIDLPVKRRA [HN-C8A, HN mutant, Cys8 to Ala] | Not effective, prevents HN self- | Loss of membrane receptor | – | – | – | – | – |
| MAPRGASCLLLLTGEIDLPVKRRA [HNG-F6A] | – | – | did not change spontaneous germ cell apoptosis | – | – | – | inhibition of (protection against) CP-induced germ cell apoptosis, early+late stages ([3]; HNG, HNG-F6A 5 mg/kg BW): ~38%; prevention of CP-induced germ cell apoptosis, middle stages ([3]; stages VII-VIII, HNG, HNG-F6A 5 mg/kg BW): ~42% |
| CCN(CC)CCCC(C)Nc1ccnc2cc(Cl)ccc12 (stereo not drawn) [chloroquine] | – | – | – | – | – | – | additive effect of humanin in doxorubicin treated B16 cells, with autophagy inhibitor [4]: diminished the additive effect of humanin |
| COc1cccc2c1C(=O)c1c(O)c3c(c(O)c1C2=O)C[C@@](O)(C(=O)CO)C[C@@H]3O[C@H]1C[C@H](N)[C@H](O)[C@H](C)O1 [DOX, doxorubicin hydrochloride, reference compound] | – | – | – | – | – | – | germ cell apoptosis (number of apoptotic germ cells) compared to control [5]: significantly higher number of apoptotic germ cells; germ cell apoptosis (number of apoptotic germ cells) compared to control ([5]; listed as doxorubicin): significantly increased apoptosis; germ cell apoptosis compared with control ([5]; doxorubicin 1 μM (low dose)): increased apoptosis but did not reach statistical difference |
| MAPRGFACLLLLTSEIDLPVKRRA [HN-S7A] | Not effective, prevents HN self- | Loss of membrane receptor | did not change the spontaneous germ cell apoptosis | did not change the effect of HN on CP-induced apoptosis | inhibited | had better protective effect than HN | STAT3 phosphorylation (phosphorylated STAT3/STAT3) compared with control [6]: did not change STAT3 phosphorylation; CP suppressed STAT3 (Ser727) phosphorylation [6]: restored CP-induced Ser 727-phosphorylation of STAT3 |
| CS(=O)(=O)OCCOS(C)(=O)=O [EDS, ethane dimethanesulfonate] | – | – | – | – | – | – | germ cell apoptosis at early (I-VI) and late (IX-XIV) stages, EDS pre-treated rats, compared to control [7]: did not significantly increase germ cell apoptosis; germ cell apoptosis in middle (VII-VIII) stages, EDS pre-treated rats [7]: had significant acute cytotoxic effects on germ cells; Leydig cells in the interstitial spaces (testis histology) ([8]; EDS for three days): depletion of Leydig cells; intratesticular testosterone levels [8, 9]: decreased to very low levels; serum testosterone levels [8, 9]: decreased to very low levels |
| Cn1cnc(N)c2ncnc1-2 [3-MA] | – | – | – | – | – | – | additive effect of humanin in doxorubicin treated B16 cells, with autophagy inhibitor [4]: diminished the additive effect of humanin |
| HN-L12A: HN with a substitution of alanine for 12th leucine, HN antagonist dimerizes with HN preventing HN binding to receptor (MAPRGFSCLLLATSEIDLPVKRRA) | HN antagonist, forms inactive dimer | – | did not change the spontaneous germ cell apoptosis | completely blocked the preventive effect of HN | unable to rescue | unable to rescue | – |
| MAPRGFSPLLLLTSEIDLPVKRRA [HN-C8P] | Not effective, blocks intracellular HN | Loss of BAX binding | did not change the spontaneous germ cell apoptosis | did not change the preventive effect of HN | showed less protection against CP-induced apoptosis | no significant effect in middle (VII-VIII) stages | inhibition of (protection against) CP-induced germ cell apoptosis, early+late stages ([3]; HNG, HNG-F6A 5 mg/kg BW): ~30%; STAT3 phosphorylation (phosphorylated STAT3/STAT3) compared with control [6]: did not change STAT3 phosphorylation; CP suppressed STAT3 (Ser727) phosphorylation [6]: restored CP-induced Ser 727-phosphorylation of STAT3 |
| MAPRGASCLLLLTSEIDLPVKRRA [HN-F6A] | Similar/more effective than HN. | Loss of IGFBP-3 binding | – | – | – | – | – |
